# “And” between values parts separate entries of the source, which are not always exact repeats. Identical values can stand only once.
# Tests used:
# [1] = test system: CT26 colon carcinoma; experiment: CT26 model, combination with docetaxel; format: in vivo, mouse; settings: for Individual tumor volumes: CA-170 alone, individual animals; for TGI: CT26 in Balb/c mice, 12 days
# Experimental: Studies in syngeneic models including B16 melanoma metastasis model and CT26 colon carcinoma subcutaneous model were performed as described. For the Docetaxel combination experiment in CT26 model, indicated dosage of docetaxel (Source: Docetere® injection by Dr Reddy’s Laboratories) was dosed intraperitoneally to animals. For the CA-170 combination groups, CA-170 (10 mg/kg/day, oral) was dosed ~10 min after docetaxel. Animal grouping, treatment efficacy assessment and %TGI calculations were performed as mentioned above. For the CT26 experiment with cyclophosphamide, 100 mg/kg of cyclophosphamide was dosed once on day 5 intraperitoneally after cell implantation (first day of dosing for all other groups). Anti-PD1 antibody (Clone J43 from BioXcel) was dosed intraperitoneally at 100 µg/animal once every week.
# [2] = target: T1, Neurotensin NTS1 (Homo sapiens, UniProt P30989); experiment: CEREP 80 panel binding: Neurotensin; settings: read-out: % Inhibition of Control Specific Binding
# T1 construct: Eurofins Cerep Panlabs (contract assay)
# T1 sequence (P30989 whole entry): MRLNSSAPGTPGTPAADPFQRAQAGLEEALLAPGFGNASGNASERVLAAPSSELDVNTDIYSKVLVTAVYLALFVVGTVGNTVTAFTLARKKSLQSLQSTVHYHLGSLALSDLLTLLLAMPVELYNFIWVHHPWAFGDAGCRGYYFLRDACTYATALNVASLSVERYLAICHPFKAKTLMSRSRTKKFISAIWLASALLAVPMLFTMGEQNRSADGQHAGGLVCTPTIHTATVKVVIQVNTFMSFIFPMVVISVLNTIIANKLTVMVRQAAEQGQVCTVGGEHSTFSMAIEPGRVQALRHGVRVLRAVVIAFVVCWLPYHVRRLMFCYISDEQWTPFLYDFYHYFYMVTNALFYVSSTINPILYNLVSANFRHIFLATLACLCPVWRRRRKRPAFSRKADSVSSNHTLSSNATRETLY
# Experimental: (§1) CEREP 80 panel assay was carried out by Eurofins Cerep Panlabs facility at France. A series of binding assays was carried out to understand the off-target toxicity of CA-170. CA-170 was tested at 10 μM test concentration in duplicates. Compound binding was calculated as a % inhibition of the binding of a radioactively labeled ligand specific for each target. In each experiment the respective reference compound was tested concurrently with CA-170, and the data were compared with historical values determined at Eurofins. The experiment was accepted in accordance with Eurofins validation standard operating procedure. The results are expressed as a percent of control specific binding; (measured specific binding / control specific binding) × 100 and as a percent inhibition of control specific binding; 100−(measured specific binding / control specific binding) × 100 obtained in the presence of CA-170. The IC50 values (concentration causing a half-maximal inhibition of control specific binding) and Hill coefficients (nH) were determined by non-linear regression analysis of the competition curves generated with mean replicate values using Hill equation curve fitting.
# [3] = test system: Adenosine A1, A2A, A3; experiment: CEREP 80 panel binding: Adenosine; settings: 10 µM
# Experimental: as §1
# [4] = test system: GR, PPARγ; experiment: CEREP 80 panel binding: Nuclear receptors; settings: 10 µM
# Experimental: as §1
# [5] = test system: Classical Hodgkin lymphoma; design: method as in doi:10.1093/annonc/mdz253.035; settings: Phase 2, Lugano criteria; cited from earlier work
# [6] = target: T2, VISTA (Homo sapiens, UniProt Q9H7M9); experiment: VISTA functional assay (IFN-γ release, human PBMC); format: cell-based; settings: for IFNγ Rescue (%): inhibited by VISTA; for IFNγ Rescue (%) / IFN-γ: replicates; for IFN-γ: human PBMCs + anti-CD3/anti-CD28 + VISTA 2.5 µg/mL
# T2 construct: purchased R&D systems 126-B7
# T2 sequence (Q9H7M9 with tags, fused parts or gaps limits assumed): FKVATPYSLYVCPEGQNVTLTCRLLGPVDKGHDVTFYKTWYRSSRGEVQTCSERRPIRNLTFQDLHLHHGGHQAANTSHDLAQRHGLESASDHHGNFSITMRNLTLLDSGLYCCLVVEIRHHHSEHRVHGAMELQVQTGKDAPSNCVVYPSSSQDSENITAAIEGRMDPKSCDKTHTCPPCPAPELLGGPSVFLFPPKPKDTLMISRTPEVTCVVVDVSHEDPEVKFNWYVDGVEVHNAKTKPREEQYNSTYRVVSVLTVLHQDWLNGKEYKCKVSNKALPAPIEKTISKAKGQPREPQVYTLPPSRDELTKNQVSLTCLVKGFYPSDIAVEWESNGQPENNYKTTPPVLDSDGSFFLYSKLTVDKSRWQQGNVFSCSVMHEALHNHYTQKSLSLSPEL
# Experimental: The ability of CA-170 to rescue VISTA-mediated inhibition of IFN-γ release from anti-CD3/CD28-stimulated human PBMC was used to monitor the effect of CA-170 on VISTA functionality. Briefly, 96-well cell culture plates were pre-coated with recombinant human VISTA (2.5 µg/mL) and anti- human CD3 (2.5 µg/mL) overnight at 4 °C. Anti-human VISTA and isotype control antibodies were either coated along with the VISTA or incubated for 30 min next day before addition of cells. On the next day, plates were incubated with CA-170 for 30 min at different concentrations. Isolated PBMC (0.1 × 10^6 cells/well) and anti-human CD28 antibodies (1 µg/mL) were added to the wells. The culture was further incubated for 72 h at 37 °C with 5% CO2. After 72 h of incubation the cell culture supernatants were collected after brief centrifugation at 200 g x 5 min at 4 °C and processed for human IFN-γ measurement by ELISA following manufacturer’s protocol (R&D Systems; DY-285). Percent rescue of IFN-γ release was calculated by normalizing individual percent test agent IFN-γ release values to percent anti-CD3 and anti-CD28 antibodies stimulated IFN-γ release. EC50 values were derived by plotting transformed data into non-linear fit in sigmoidal dose–response curve using GraphPad Prism software (Version 7).
# [7] = test system: B7.1-CD28 co-stimulatory pathway; experiment: CD28-B7.1 functional assay (IL-2, Jurkat T cells); format: cell-based, human; settings: for IL2: Jurkat + PHA 5 µg/mL + B7.1 1 µg/mL, replicates
# Experimental: Impact of CA-170 on immunostimulatory interaction was examined in a Jurkat T-cell-based assay in which the ability of B7-1 to induce production of IL-2 was monitored upon stimulation with PHA. Briefly, Jurkat T cells (0.25 × 10^5 cells/well of a 96-well plate) grown and starved in serum-free RPMI1640 media for 2 h were stimulated with PHA (5 µg/mL) and B7.1 (1.0 µg/mL) and different concentrations of CA-170 and cultured for 48 h at 37 °C. After indicated time of incubation, culture supernatant was analyzed for IL-2 by ELISA. Anti-CD28 antibody and isotypes were used as controls.
# [8] = test system: purinergic P2X, P2Y; experiment: CEREP 80 panel binding: purinergic; settings: 10 µM
# Experimental: as §1
# [9] = Plasma stability, mice; settings: mouse
# Experimental: Test compounds were tested for plasma stability (test concentration of 10 μM) as per the protocols reported in publication[20].
# [10] = test system: broad panel of receptors and enzymes; experiment: CEREP 80-panel profiling, whole panel; format: binding; settings: CEREP profiling assay
# Experimental: as §1
# [11] = test system: TNFα; experiment: CEREP 80 panel binding: Cytokines; settings: 10 µM
# Experimental: as §1
# [12] = target: T3, Melanocortin MC4 (Homo sapiens, UniProt P32245); experiment: CEREP 80 panel binding: Melanocortin; settings: read-out: % Inhibition of Control Specific Binding
# T3 construct: Eurofins Cerep Panlabs (contract assay)
# T3 sequence (P32245 whole entry): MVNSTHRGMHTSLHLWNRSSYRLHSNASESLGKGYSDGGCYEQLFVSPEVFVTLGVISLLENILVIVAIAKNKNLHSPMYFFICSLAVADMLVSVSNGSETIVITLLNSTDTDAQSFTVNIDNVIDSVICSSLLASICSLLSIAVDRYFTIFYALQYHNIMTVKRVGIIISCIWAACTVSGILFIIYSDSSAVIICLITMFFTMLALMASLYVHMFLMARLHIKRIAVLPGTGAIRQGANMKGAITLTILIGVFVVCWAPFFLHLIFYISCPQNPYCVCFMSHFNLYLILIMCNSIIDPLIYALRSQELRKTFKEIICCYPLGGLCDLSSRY
# Experimental: as §1
# [13] = Phase 1, cited from earlier work
smiles,measurement,setting,value
C[C@@H](O)[C@H](NC(=O)N[C@@H](CC(N)=O)c1nc([C@@H](N)CO)no1)C(=O)O [CA-170],Individual tumor volumes,[1]; day 1 of treatment,20.16 mm3 and 32.48 mm3 and 34.58 mm3 and 45.49 mm3 and 48.25 mm3 and 58.95 mm3 and 62 mm3 and 77.12 mm3 and 87.62 mm3
same,Individual tumor volumes,[1]; day 4 of treatment,46.73 mm3 and 66.38 mm3 and 43.09 mm3 and 70.24 mm3 and 54.41 mm3 and 118.43 mm3 and 93.26 mm3 and 105.24 mm3 and 188.91 mm3
same,Individual tumor volumes,[1]; day 6 of treatment,73.66 mm3 and 96.49 mm3 and 125.38 mm3 and 93.3 mm3 and 88 mm3 and 204.79 mm3 and 132.26 mm3 and 118.36 mm3 and 317.89 mm3
same,Individual tumor volumes,[1]; day 8 of treatment,84.62 mm3 and 174.68 mm3 and 185.55 mm3 and 147.74 mm3 and 147.76 mm3 and 334.98 mm3 and 214.88 mm3 and 178.28 mm3 and 601.81 mm3
same,Individual tumor volumes,[1]; day 11 of treatment,209.65 mm3 and 360.36 mm3 and 315.63 mm3 and 279.2 mm3 and 265.42 mm3 and 706.83 mm3 and 356.89 mm3 and 376.42 mm3 and 728.46 mm3
same,TGI,[1]; CA-170 10 mg/kg/day single agent,43%
same,TGI,[1]; combination CA-170 10 mg/kg and docetaxel 10 mg/kg,68%
same,inhibition at 10 µM,[2],7%
same,% Inhibition of Control Specific Binding,[3],≤ 26%
same,% Inhibition of Control Specific Binding,[4],≤ 7%
same,ORR,[5],30%
same,IFNγ Rescue (%),[6]; 1.95 nM,-2.58% and 0.00% and 0.36%
same,IFNγ Rescue (%),[6]; 3.91 nM,-0.86% and 0.32% and 1.09%
same,IFNγ Rescue (%),[6]; 7.81 nM,5.58% and 4.87% and 6.18%
same,IFNγ Rescue (%),[6]; 15.63 nM,21.46% and 16.88% and 19.64%
same,IFN-γ,[6]; 31.25 nM,1018 pg/mL and 1268 pg/mL and 1298 pg/mL
same,IFNγ Rescue (%),[6]; 31.25 nM,36.91% and 37.66% and 42.55%
same,IFNγ Rescue (%),[6]; 62.50 nM,48.07% and 36.69% and 46.91%
same,IFNγ Rescue (%),[6]; 250.00 nM,107.73% and 72.73% and 91.64%
same,IFN-γ,[6]; 500 nM,2498 pg/mL and 2438 pg/mL and 2828 pg/mL
same,IFNγ Rescue (%),[6]; 500.00 nM,100.43% and 75.65% and 98.18%
same,rescue of IFNγ release inhibited by recombinant VISTA (in words),[6]; human PBMCs stimulated with anti-CD3 and anti-CD28,rescued IFNγ release
same,EC50,"[6]; mean ± S.D., n=4, read-out: Human PBMC IFN-γ Rescue EC50 VISTA",82.9 nM
same,IL2,[7]; 10 nM,70.45 pg/mL and 63.796 pg/mL and 63.436 pg/mL
same,IL2,[7]; 100 nM,83.976 pg/mL and 80.412 pg/mL and 77.892 pg/mL
same,IL2,[7]; 1000 nM,83.364 pg/mL and 84.022 pg/mL and 79.85 pg/mL
same,inhibition of B7-1-mediated IL-2 secretion (in words),[7]; Jurkat cells stimulated with PHA + human B7-1,did not inhibit IL-2 secretion
same,% Inhibition of Control Specific Binding,[8],≤ 3%
same,"remaining at 4 h, 10 μM",[9],> 95%
same,interaction with panel of receptors and enzymes (in words),[10],minimal or no interaction
same,% Inhibition of Control Specific Binding,[11],< 0%
same,inhibition at 10 µM,[12],0%
same,peripheral T-cell activation (in words),"[13]; circulating CD8+ and CD4+ T cells expressing CD69, Granzyme B, OX-40",Evidence of peripheral T-cell activation
same,T1/2,[13]; oral 50 to 1200 mg,4 to 9.5 h
same,safety profile (in words),[13]; oral 50 to 1200 mg,acceptable safety profile

# From publication PMC8187357 (Communications Biology, 2021)
